We go through eleven compounds from PubChem BioAssay (NCI).

Each structure is given as a SMILES string.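 Assay format: 96-well plates, 48-hour exposure. TGI denotes the concentration required for complete inhibition of growth.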

What all share (experiment): growth of human tumour cells (NCI), 48 h
Assay [1] relates to A498 renal.
Assay [2] has as its system A549 NSCLC.
The subject of assay [3] is COLO 205 colon.
The test system of assay [4] is EKVX NSCLC.
The test system of assay [5] is HS 578T breast.
Assay [6] concerns HT29 colon.
Assay [7] concerns IGROV1 ovarian.
Assay [8] relates to K-562 leukemia.
Assay [9] relates to KM12 colon.
Assay [10] has as its system LOX IMVI melanoma.
Assay [11] deals with M14 melanoma.
Assay [12] concerns NCI-H460 lung.
Assay [13] concerns OVCAR-4 ovarian.
Assay [14] deals with SF-295 CNS.
Assay [15] deals with SK-MEL-28 melanoma.
Assay [16] concerns SK-MEL-5 melanoma.
Assay [17] deals with SR leukemia.
In assay [18] the test system is UACC-257 melanoma.
In assay [19] the test system is UO-31 renal.

For `O/N=C1\CC2(N3CCOCC3)CCC1(c1ccccc1)CC2`, the TGI in assay [1], in assay [2], in assay [3], in assay [4], in assay [5] and in [6] was more than 100 µM each time. Besides, the TGI in assay [7], in assay [8], in assay [9], in [10], in assay [11] and in assay [12] was more than 100 µM throughout. For the same compound, the TGI in assay [13], in [14], in assay [15], in assay [16], in assay [17] and in assay [18] was more than 100 µM in each case. The compound further came in with a TGI in assay [19] of more than 100 µM.
As to `C=C(Cl)/C(=C\Cl)CCC(Cl)C(C)C` (centres undefined), the TGI in assay [1], in assay [2], in assay [3], in assay [4], in assay [5] and in assay [6] was more than 100 µM throughout. Also, the TGI in [7], in assay [8], in [9], in assay [10], in [11] and in [12] was more than 100 µM in each case. Also, the TGI in assay [13], in assay [14], in [15], in assay [16], in assay [17] and in assay [18] was more than 100 µM each time. In assay [19], this compound gave a TGI of more than 100 µM.
Turning to `CC[C@H](C)C1=C(OC(C)=O)[N@+]2([O-])Oc3ccc(-c4c(O)c(O)c(-c5ccc(OC(C)=O)cc5)c(OC(C)=O)c4OC(C)=O)cc3O[C@]2([C@@H](C)CC)C(=O)N1O`, the TGI in assay [1], in [2], in assay [3], in assay [4], in assay [5] and in [6] was more than 50 µM throughout. The TGI in assay [7] was 44.7 µM; in [8], 29.2 µM; in assay [9] it was more than 50 µM; in [10], more than 50 µM; in assay [11], more than 50 µM; in [12], more than 50 µM. The TGI in assay [13] is 26.9 µM; in [14], more than 50 µM; in [15] it was more than 50 µM; in assay [16] it was more than 50 µM; in assay [17] it was 39.7 µM; in assay [18], more than 50 µM. The TGI in assay [19] was more than 50 µM.
As for `O/N=C(/C(Cl)=C(Cl)Cl)C(Cl)Cl`, the TGI is more than 100 µM in assay [1]; more than 100 µM in assay [2]; 44.2 µM in assay [3]; more than 100 µM in [4]; 61.3 µM in [5]; 30.3 µM in assay [6]. The TGI was 44.6 µM in [7]; 38 µM in [8]; 47.4 µM in [9]; 37.3 µM in assay [10]; 40.8 µM in [11]; more than 100 µM in assay [12]. Also, the TGI was determined as 30.3 µM in [13]; 35.8 µM in assay [14]; 30.2 µM in [15]; 40.3 µM in assay [16]; 26.7 µM in assay [17]; 40.6 µM in assay [18]. This compound showed a TGI in assay [19] of 49 µM.
`COC(=O)c1c(C)[nH]c2c1C(=O)C(=O)c1nc(C)c(C)nc1-2`: the TGI in [1] was 40 µM; in assay [2], more than 100 µM; in [3], 29.5 µM; in assay [4], 22.6 µM; in assay [5] it was 58.6 µM; in assay [6], 59.6 µM. Moreover, the TGI in assay [7] was 36.1 µM; in assay [8], more than 100 µM; in [9], 37.1 µM; in assay [10] it was 24.1 µM; in [11], 27 µM; in [12], more than 100 µM. In addition, the TGI was found to be 28.7 µM in assay [13]; 18.3 µM in assay [14]; 25.2 µM in assay [15]; 20 µM in assay [16]; 44.9 µM in assay [17]; 24.6 µM in [18]. In [19], this compound gave a TGI of 35.7 µM.
With `CCc1c2cc(OC)c(OC)cc2cc2c3cc(OC)c(OC)cc3cc[n+]12` (tested in a mixture with another compound), the TGI is more than 71.8 µM in assay [1]; more than 96.6 µM in assay [2]; 22.8 µM in assay [3]; more than 88 µM in assay [4]; more than 89.1 µM in assay [5]; more than 66.4 µM in [6]. Moreover, the TGI in assay [7] is more than 85.3 µM; in assay [8] it was more than 45.6 µM; in assay [9] it was more than 61.5 µM; in assay [10], more than 63 µM; in assay [11], more than 86.6 µM; in assay [12], more than 76 µM. In addition, the TGI in assay [13] is more than 85.6 µM; in assay [14], more than 86.7 µM; in [15] it was more than 79.4 µM; in [16], 48.9 µM; in [17], more than 57.9 µM; in [18], 59.3 µM. In assay [19], this compound showed a TGI of more than 71.6 µM.
For `CCN(CC)Cc1ccccc1CC(=O)N1c2ccccc2C(=O)Nc2cccnc21`, the TGI in [1], in [2], in assay [3], in [4], in assay [5] and in assay [6] was more than 100 µM throughout. Also, the TGI in assay [7], in assay [8], in assay [9], in assay [10], in assay [11] and in [12] was more than 100 µM in each case. Moreover, the TGI is more than 100 µM in assay [13]; more than 100 µM in [14]; more than 100 µM in assay [15]; more than 100 µM in assay [16]; 72.2 µM in assay [17]; more than 100 µM in assay [18].
Turning to `S=C=Nc1ccc(CSc2nc3ccccc3[nH]2)cc1`, the TGI in assay [1] was 46 µM; in [2] it was 31 µM; in assay [3], 29 µM; in assay [4], 40.4 µM; in assay [5], more than 100 µM; in [6], 32.6 µM. Besides, the TGI in assay [7] was 33.7 µM; in assay [8], more than 100 µM; in assay [9] it was 31.7 µM; in assay [10], 35.6 µM; in assay [12], 40.4 µM; in [13] it was 31.6 µM. The TGI in assay [14] was determined as 32.3 µM; in assay [15] it was 37.3 µM; in [16], 29.4 µM; in [17] it was 65.4 µM; in assay [18], 34.1 µM; in assay [19], 34.8 µM.
With `Cc1ccc(S(=O)(=O)NC(=O)Nc2cccc(S(N)(=O)=O)c2)cc1`, the TGI in assay [1], in [2], in assay [3], in assay [4], in assay [5] and in assay [6] was more than 100 µM in each case. The TGI in assay [7], in assay [8], in assay [9], in assay [10], in [11] and in assay [12] was more than 100 µM each time. Also, the TGI in [13], in [14], in [15], in assay [16], in assay [17] and in assay [19] was more than 100 µM in each case.
Turning to `c1csc(-c2nccc3c2[nH]c2ccccc23)c1`, the TGI in [1] was 33.9 µM; in assay [2], 49.2 µM; in assay [3], 28.9 µM; in assay [4], 84.9 µM; in [5] it was more than 100 µM; in assay [6] it was 29.3 µM. In addition, the TGI in assay [7] was 37.4 µM; in [8], 63.8 µM; in assay [9], 34.4 µM; in assay [10] it was 39.7 µM; in assay [11] it was 31.6 µM; in [12], 57 µM. For the same compound, the TGI in [13] turned out to be 55.1 µM; in assay [14] it was 34.9 µM; in assay [15], 43 µM; in [16] it was 31.4 µM; in [17] it was 48 µM; in assay [18], 35.7 µM.
On to `CCOC(=O)c1nc2ccccc2nc1NCc1ccc(OC)c(OC)c1`, for which the TGI in assay [1], in [2], in assay [3], in [4], in [5] and in [6] was more than 100 µM in each case. In addition, the TGI in [7], in [8], in [9], in assay [10], in assay [12] and in assay [13] was more than 100 µM throughout. Further, the TGI in assay [14], in assay [15], in assay [16], in assay [17], in assay [18] and in [19] was more than 100 µM each time.
